The record followed here is patent US8691758B2, “Inhibitors of serine proteases, particularly HCV NS3-NS4A protease” (Vertex Pharmaceuticals Incorporated, priority 2003, dated 2014).

As usually defined, the Ki is the dissociation constant of the complex between target and ligand, obtained from inhibition or displacement. For orientation: IC50 means the concentration at which inhibition is half-maximal. A high value points to weaker potency.

Test [1] deals with HCV NS3-NS4A protease (tNS3 with KK4A) (Hepatitis C virus genotype 1a, UniProt P27958). The experiment in a line: HCV Ki assay (HPLC microbore separation of 5AB substrate and products). The test is classed as biochemical. Conditions: 25 nM tNS3, 25 μM KK4A, 25 μM 5AB substrate, 20 min at 30 C. As to the method: HPLC Microbore Method for Separation of 5AB Substrate and Products
• NH2-Glu-Asp-Val-Val-(alpha)Abu-Cys-Ser-Met-Ser-Tyr-COOH
A stock solution of 20 mM 5 AB (or concentration of your choice) was made in DMSO w/0.2M DTT. This was stored in aliquots at −20 C.
Buffer: 50 mM HEPES, pH 7.8; 20% glycerol; 100 mM NaCl
Total assay volume was 100 μL
The buffer, KK4A, DTT, and tNS3 were combined; distributed 78 μL each into wells of 96 well plate. This was incubated at 30 C for ˜5-10 min.
2.5 μL of appropriate concentration of test compound was dissolved in DMSO (DMSO only for control) and added to each well. This was incubated at room temperature for 15 min.
Initiated reaction by addition of 20 μL of 250 μM 5AB substrate (25 μM concentration is equivalent or slightly lower than the Km for 5 AB). • Incubated for 20 min at 30 C. • Terminated reaction by addition of 25 μL of 10% TFA • Transferred 120 μL aliquots to HPLC vials
Separated SMSY product from substrate and KK4A by the following method:
Microbore Separation Method:
• Instrumentation: Agilent 1100 • Degasser G1322A • Binary pump G1312A • Autosampler G1313A • Column thermostated chamber G1316A • Diode array detector G1315A • Column: • Phenomenex Jupiter; 5 micron C18; 300 angstroms; 150×2 mm; P/O 00F-4053-B0 • Column thermostat: 40 C • Injection volume: 100 μL • Solvent A=HPLC grade water+0.1% TFA • Solvent B=HPLC grade acetonitrile+0.1% TFA
• Stop time: 17 min • Post-run time: 10 min.

Test [2] concerns Cells containing hepatitis C virus (HCV) replicon. As to the kind of experiment: HCV replicon cell assay (Taqman RT-PCR of HCV RNA). It counts as cell-based. To be noted: concentration at which 50% inhibition of HCV RNA level is observed, 48-hour incubation, 2% FBS. As to the method: HCV Replicon Cell Assay Protocol
Cells containing hepatitis C virus (HCV) replicon were maintained in DMEM containing 10% fetal bovine serum (FBS), 0.25 mg per ml of G418, with appropriate supplements (media A).
On day 1, replicon cell monolayer was treated with a trypsin:EDTA mixture, removed, and then media A was diluted into a final concentration of 100,000 cells per ml wit. 10,000 cells in 100 ul were plated into each well of a 96-well tissue culture plate, and cultured overnight in a tissue culture incubator at 37° C.
On day 2, compounds (in 100% DMSO) were serially diluted into DMEM containing 2% FBS, 0.5% DMSO, with appropriate supplements (media B). The final concentration of DMSO was maintained at 0.5% throughout the dilution series.
Media on the replicon cell monolayer was removed, and then media B containing various concentrations of compounds was added. Media B without any compound was added to other wells as no compound controls.
Cells were incubated with compound or 0.5% DMSO in media B for 48 hours in a tissue culture incubator at 37° C. At the end of the 48-hour incubation, the media was removed, and the replicon cell monolayer was washed once with PBS and stored at −80° C. prior to RNA extraction.
Culture plates with treated replicon cell monolayers were thawed, and a fixed amount of another RNA virus, such as Bovine Viral Diarrhea Virus (BVDV) was added to cells in each well. RNA extraction reagents (such as reagents from RNeasy kits) were added to the cells immediately to avoid degradation of RNA. Total RNA was extracted according the instruction of manufacturer with modification to improve extraction efficiency and consistency. Finally, total cellular RNA, including HCV replicon RNA, was eluted and stored at −80° C. until further processing.
A Taqman real-time RT-PCR quantification assay was set up with two sets of specific primers and probe. One was for HCV and the other was for BVDV. Total RNA extractants from treated HCV replicon cells was added to the PCR reactions for quantification of both HCV and BVDV RNA in the same PCR well. Experimental failure was flagged and rejected based on the level of BVDV RNA in each well. The level of HCV RNA in each well was calculated according to a standard curve run in the same PCR plate. The percentage of inhibition or decrease of HCV RNA level due to compound treatment was calculated using the DMSO or no compound control as 0% of inhibition. The IC50 (concentration at which 50% inhibition of HCV RNA level is observed) was calculated from the titration curve of any given compound.
For orientation: In antiviral work, replicon cells carry a viral genome segment that copies itself.

Bounds are passed on as bounds.

Sequence of HCV NS3-NS4A protease (tNS3 with KK4A) (P27958 1658-1711): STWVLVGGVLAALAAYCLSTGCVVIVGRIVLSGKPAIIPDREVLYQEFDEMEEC
Sequence of HCV NS3-NS4A protease (tNS3 with KK4A) (P27958 1027-1208): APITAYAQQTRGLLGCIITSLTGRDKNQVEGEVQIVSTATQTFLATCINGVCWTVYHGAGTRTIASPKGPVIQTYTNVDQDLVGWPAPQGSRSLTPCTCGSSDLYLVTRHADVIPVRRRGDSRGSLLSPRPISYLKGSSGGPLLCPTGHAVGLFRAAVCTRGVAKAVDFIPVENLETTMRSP

Turning to `CCC[C@H](NC(=O)[C@@H]1CC2(CN1C(=O)[C@@H](NC(=O)[C@@H](NC(=O)c1[nH]c(C)c(C)c1C(C)=O)C1CCCCC1)C(C)(C)C)SCCCS2)C(=O)C(=O)NC1CC1` [Compound 1a, 2-(2-{2-[(3-acetyl-4,5-dimethyl-1H-pyrrole-2-carbonyl)-amino]-2-cyclohexyl-acetylamino}-3,3-dimethyl-butyryl)-6,10-dithia-2-aza-spiro[4.5]decane-3-carboxylic acid(1-cyclopropylaminooxalyl-butyl)-amide], the inhibition constant (Ki) in test [1] was under 0.5 µM. This compound also registered an IC50 in test [2] of under 0.5 µM. With `CCC[C@H](NC(=O)[C@@H]1CC2(CN1C(=O)[C@@H](NC(=O)[C@@H](NC(=O)c1cnccn1)C1CCCCC1)C(C)(C)C)SCCCS2)C(=O)C(=O)NC1CC1` [Compound 2a, 2-(2-{2-cyclohexyl-2-[(pyrazine-2-carbonyl)-amino]-acetylamino}-3,3-dimethyl-butyryl)-6,10-dithia-2-azaspiro[4.5]decane-3-carboxylic acid(1-cyclopropylaminooxalyl-butyl)-amide], in test [1], the Ki is under 0.5 µM. In addition, the half-inhibitory concentration (IC50) in test [2] is under 0.5 µM. In turn, `CCC[C@H](NC(=O)[C@@H]1CC2(CN1C(=O)[C@@H](NC(=O)[C@@H](NC(=O)c1cnccn1)C1CCCCC1)C(C)(C)C)SCCCS2)C(=O)C(N)=O` [Compound 3a] registered a Ki in test [1] of under 0.5 µM. In test [2], the IC50 is under 0.5 µM. `CCC[C@H](NC(=O)[C@@H]1CC2(CN1C(=O)[C@@H](NC(=O)[C@@H](NC(=O)c1[nH]c(C)c(C)c1C(C)=O)C1CCCCC1)C(C)(C)C)SCCCS2)C(=O)C(N)=O` [Compound 4a]: the Ki in test [1] is under 0.5 µM. The same compound had an IC50 in test [2] of under 0.5 µM. In test [1], `CCC[C@@H](NC(=O)[C@@H]1CC2(CN1C(=O)[C@@H](NC(=O)[C@@H](NC(=O)c1cnccn1)C1CCCCC1)C(C)(C)C)SCCCS2)C(=O)C(=O)NC1CC1` [Compound 5a] came in with a Ki of under 0.5 µM. Consider `CCCC(NC(=O)[C@@H]1CC2(CN1C(=O)[C@@H](NC(=O)[C@@H](NC(=O)c1cnccn1)C1CCCCC1)C(C)(C)C)SCCCS2)C(=O)C(=O)NC1CC1` (stereo partly drawn) [Compound 6a], for which the Ki in test [1] was under 0.5 µM. For the compound `CCC[C@H](NC(=O)[C@@H]1CC2(CN1C(=O)[C@@H](NC(=O)[C@@H](NC(=O)c1cnccn1)C1CCCCC1)C(C)(C)C)SCCS2)C(=O)C(=O)NC1CC1` [Compound 7a], in test [1], the inhibition constant Ki is under 0.5 µM. The compound further yielded a concentration for half-maximal inhibition (IC50) in test [2] of under 0.5 µM.
